“And” between values parts separate entries of the source, which are not always exact repeats. Equal values may be shown once. The source made the active and inactive calls.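 Rule for the calls: active = compounds giving half or more protection of infected cells from virus-caused growth loss, again on retest; inactive = the rest.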
Test system: CEM cells HIV-1 protection, formazan growth assay
Test: NCI AIDS Antiviral Assay
Details: for IC50: measured here: growth of uninfected CEM cells
How it was run: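 Protection of CEM cells against HIV-1 was scored from cell growth (soluble formazan) across five concentrations, with parallel uninfected cells. Lack of protection may reflect toxicity.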

## CCOC(=O)/C=C(/CN1C(=O)c2ccccc2C1=O)c1ccccc1
  outcome: inactive

## COC(=O)C1=CC(=O)OC1(OO)c1ccc(Br)cc1 (stereo not drawn)
  EC50: > 200 µM
  IC50: 38.9 µM

## CCN1C[C@]2(COC)CCC(O)C34[C@@H]5C[C@@H]6C(OC(C)=O)[C@@H]5[C@](OC(C)=O)(C[C@@H]6OC)[C@@H](C(OC)[C@@H]32)[C@H]14 (stereo partly drawn)
  outcome: inactive

## CCC(=O)N1C(=O)C(CC)(CC)C(=O)N1C(=O)CC
  EC50: > 200 µM
  IC50: > 200 µM

## O=C(CC(O)(C(F)(F)F)C(F)(F)F)c1ccc(Cl)cc1
  EC50: > 200 µM
  IC50: > 200 µM

## Cc1cc(C)nc(NS(=O)(=O)c2ccc(Nc3c4ccccc4nc4c(C(=O)Nc5ccc(S(=O)(=O)N=C(N)N)cc5)ccc(Cl)c34)cc2)n1
  EC50: > 93.3 µM
  IC50: 69.2 µM

## CN(C)C(=S)Nc1nnc(Nc2ccccc2)s1
  outcome: inactive

## CNC(=O)NC1ON=C(c2ccccc2)C1C(=O)NC (stereo not drawn)
  EC50: > 200 µM
  IC50: 182 µM

## O=C1c2ccccc2C2(O)N(c3ccccc3)C(=S)N(c3ccccc3)C12O (stereo not drawn)
  EC50: > 646 µM
  IC50: 316 µM

## CC(=O)CN(Cc1cc(C)c2c(c1)c1ccccc1n2Cc1ccccc1)S(=O)(=O)c1ccc(C)cc1
  EC50: > 19.5 µM
  IC50: > 19.5 µM

## COc1ccc(/C=N/n2cnc3c(sc(=S)n3-c3ccccc3)c2=O)cc1
  EC50: > 6.92 µM
  IC50: > 6.92 µM

## CCCCCCCCNC(=O)/C(=C\c1ccc(/C=C(/NC(=O)c2ccccc2)C(=O)NCCCCCCCC)cc1)NC(=O)c1ccccc1
  EC50: > 100 µM
  IC50: 23.4 µM

## CN=C(N)N=Nc1c(O)[nH]c2ccccc12
  EC50: > 200 µM
  IC50: > 200 µM

## Cc1n(CC(=O)c2ccccc2)nc2sc(N)n[n+]12
  EC50: > 200 µM
  IC50: 123 µM

## CCc1c(Cc2cc(C)cc(C)c2)n(COCCC[Se]c2ccccc2)c(=O)[nH]c1=O
  EC50: 0.407 µM
  IC50: 12 µM

## O=[N+]([O-])c1ccc(C=Cc2ccc(C(F)(F)F)cc2)cc1.[C-]#[O+].[C-]#[O+].[C-]#[O+].[Cr]
  outcome: inactive

## COc1cc2c(cc1O)C1C(O)C(O)C=C3CCN(C2)C31 (stereo not drawn)
  outcome: inactive

## COc1ccc2c(c1O)C13CCN(C)C(C2)C12C=CC(=O)C3c1c(O)ccc(O)c12 (stereo not drawn)
  EC50: > 200 µM
  IC50: 2.95 µM

## CCOc1cc2c(cc1O)CC[C@@H]1[C@@H]2CC[C@]2(C)C(OS(=O)OC3CC[C@@H]4[C@H]5CCc6cc(O)c(OCC)cc6[C@@H]5CC[C@@]34C)CC[C@@H]12 (stereo partly drawn)
  EC50: > 2 µM
  IC50: 0.537 µM

## Cn1c(=O)cc(N2CCCC2)[nH]c1=O
  EC50: > 200 µM
  IC50: > 200 µM

## COc1cc(/C=C2\CCC(C)C3=C2NC(=S)NC3c2cc(OC)c(OC)c(OC)c2)cc(OC)c1OC (stereo not drawn)
  EC50: > 200 µM
  IC50: 32.4 µM

## C=C1C(=O)OC2CC(C)C(/C=C/C(C)=O)=CCC12 (stereo not drawn)
  EC50: > 363 µM
  IC50: 56.2 µM

## Cn1c(N)nc(-c2ccc(Cl)cc2)c1SSc1c(-c2ccc(Cl)cc2)nc(N)n1C
  EC50: > 200 µM
  IC50: > 200 µM

## COc1cc(O)c2c(c1C)C(C)(O)c1c(C)coc1C2=O (stereo not drawn)
  outcome: inactive

## C=C1CN(S(=O)(=O)c2ccc(C)cc2)CCN(Cc2ccccc2)CCN(S(=O)(=O)c2ccc(C)cc2)C1
  EC50: > 200 µM
  IC50: > 200 µM

## c1ccc(COC[C@H]2O[C@@H](c3ccccc3)C[C@@H](OCc3ccccc3)C2OCc2ccccc2)cc1 (stereo partly drawn)
  EC50: > 200 µM
  IC50: > 200 µM

## COC(=O)c1cc(/C=C/C(=O)Cc2ccccc2)cn1S(=O)(=O)c1ccccc1
  EC50: > 200 µM
  IC50: > 200 µM

## COC/C=C\[C@@]1(O)CCCC[C@@H]1CC(OC)OC
  EC50: > 200 µM
  IC50: 1.23 µM

## O=C(c1ccccc1)c1nc2c(Cl)ccc(Cl)c2cc1C(Br)Br
  EC50: > 2.19 µM
  IC50: > 2.19 µM

## O=C(CCCN1CCC2(CC1)CC(=O)N(N1CCCCCC1)C2=O)c1ccccc1
  EC50: > 200 µM
  IC50: 182 µM

## CC(=O)OCC1=C(CCC#N)N2C(=O)C(NC(=O)Cc3cccs3)C2S(=O)C1 (stereo not drawn)
  EC50: > 200 µM
  IC50: 95.5 µM

## Cc1cc2c(c(C=NCc3ccccc3)c1)OC1(C=C2)Oc2ccccc2C(=O)N1C (stereo not drawn)
  EC50: > 200 µM
  IC50: 52.5 µM

## Clc1ccc(N=c2ccc3ccccc3[oH+]2)cc1.Clc1ccc(N=c2ccc3ccccc3[oH+]2)cc1.[Co]
  outcome: inactive

## CCN(CC)Cc1c2c(O)c3c(O)c(C)c4c(c3c1O)C(=O)C(C)(O/C=C/C(OC)C(C)C(OC(C)=O)C(C)C(O)C(C)C(O)C(C)/C=C/C=C(\C)C(=O)N2)O4 (stereo not drawn)
  EC50: > 200 µM
  IC50: 33.1 µM

## COc1ccc(/C=C2\NC(=S)N(/C=C3\C(=O)Oc4ccccc4C3=O)C2=O)cc1
  EC50: > 200 µM
  IC50: 148 µM

## N#CCCN(CCC#N)c1ccc(/C=C2\SC(=S)NC2=O)cc1
  EC50: > 200 µM
  IC50: > 200 µM

## O=C1c2cccc3c2C(=O)c2c(cccc21)OCCOCCOCCOCCO3
  outcome: inactive

## CC1(C)CCC2(C)N(c3ccccc3)C(=O)ON12 (stereo not drawn)
  EC50: > 200 µM
  IC50: > 200 µM

## CN=C(Nn1cnnc1)OC
  EC50: > 200 µM
  IC50: > 200 µM

## CC1(O)CC2C(CC1SCc1ccccc1)C2(C)C (stereo not drawn)
  EC50: > 200 µM
  IC50: 34.7 µM and 20 µM

## O=C1CS(=O)c2ccccc2N1 (stereo not drawn)
  EC50: > 372 µM
  IC50: > 372 µM

## COc1ccc(/C(=N/O)c2ccccc2-c2nc3ccccc3c(=O)n2-c2ccc(S(=O)(=O)Nc3nccs3)cc2)cc1C
  EC50: > 50.1 µM
  IC50: > 50.1 µM

## Cn1c2ccccc2n2c(=O)c3cc([N+](=O)[O-])ccc3c(C#N)c12
  EC50: > 100 µM
  IC50: > 100 µM

From PubChem BioAssay AID179 (DTP/NCI, 2004)
